The target in one assay is cMET (Homo sapiens, UniProt P08581). Nature of the assay: MET (cMET) enzyme inhibitory activity, TR-FRET kinase assay. The format is biochemical. The following applies: cMET protein, TK peptide substrate. The protocol: In addition, to measure cMET enzyme activity inhibition, an experiment was performed by the same method as the experiment for measuring the RON enzyme activity inhibition.
Specifically, the compound was prepared at a concentration of 1 mM with 100% DMSO and serially diluted 10 times through 3-fold dilution. 2 μl of the serially diluted compound was added to a 96-well plate containing 48 μl 1× kinase reaction buffer (50 mM HEPES (pH 7.4), 0.05% BSA, 0.005% Tween-20, 1 mM DTT, 0.5 mM MnCl2, 20 mM MgCl2).
The cMET protein was diluted in a cMET storage buffer (50 mM Tris-HCl (pH 7.5), 150 mM NaCl, 0.05% Brij35, 1 mM DTT, 10% glycerol) to a concentration of 263 nM, and then diluted again with 1× kinase reaction buffer to 2 nM. As a substrate cocktail, a MET-specific substrate mixture (5 μM TK peptide, 10 mM ATP) was prepared at a concentration twice the final reaction concentration.
(§1) After that, a 384-well plate was prepared, and 2.5 μl of the diluted example compound was added to each of the experimental group wells, and 2.5 μl of a 4% DMSO solution was dispensed into high control wells and low control wells.
(§2) Afterward, 2.5 μl of 2 nM cMET was dispensed to the high control wells and the experimental group wells, and 2.5 μl of 1× kinase reaction buffer was added to the low control wells, and after centrifugation at 1000 RPM for 40 seconds at room temperature, the mixtures were incubated at room temperature for 20 to 30 minutes. Then, 5 μl of the substrate cocktail (2×) was dispensed into all wells, and after centrifugation at 1000 RPM for 40 seconds at room temperature, the mixtures were incubated at room temperature for 60 minutes. Afterward, 5 μl of 90 mM EDTA was added to all wells to terminate the reaction, and the mixtures were incubated again at room temperature for 5 minutes. Thereafter, 5 μl of 4× phosphotyrosine antibodies (Perkin Elmer) containing europium was added to all wells and incubated at room temperature for 60 minutes. After the incubation, the 384-well-plate was read with a Vison plate reader. At this time, the excitation wavelength was 340 nm, and the emission wavelengths were 620 nm and 665 nm. The IC50 value of each example compound was derived using the GraphPd Prism7 program.

A further assay has as its target RON (Homo sapiens, UniProt Q04912). Put plainly: RON inhibitory activity, TR-FRET kinase assay. The format is biochemical. The following applies: RON protein, ULight-labeled Poly GT substrate. The method, then: To measure the RON inhibitory activity of the example compounds, the IC50 of the compounds was measured using time-resolved fluorescence energy transfer (TR-FRET).
Specifically, the compound was prepared at a concentration of 1 mM with 100% DMSO and serially diluted 10 times through 3-fold dilution. 2 μl of the serially diluted compound was added to a 96-well plate containing 48 μl of 1× kinase reaction buffer (50 mM HEPES (pH 7.4), 0.01% Tween-20, 5 mM DTT, 0.5 mM Na3VO4, 2 mM EGTA, 10 mM MgCl2).
The RON protein was diluted with a RON storage buffer (50 mM Tris-HCl (pH 7.5), 150 mM NaCl, 0.5 mM EDTA, 0.02% Triton X-100) to a concentration of 49.3 nM, and then diluted again with 1× kinase reaction buffer to be 0.4 nM. As a substrate cocktail, a RON-specific substrate mixture (40 μM ULight-labeled Poly GT, 100 nM ATP) was prepared at a concentration twice the final reaction concentration.
as §1
as §2, with “of 0.4” for “of 2”, “nM RON” for “nM cMET”, “dispensed into” for “dispensed to”, “of 30” for “of 90”

pIC50: −log10 of the molar value.

cMET, sequence (P08581 25-1390): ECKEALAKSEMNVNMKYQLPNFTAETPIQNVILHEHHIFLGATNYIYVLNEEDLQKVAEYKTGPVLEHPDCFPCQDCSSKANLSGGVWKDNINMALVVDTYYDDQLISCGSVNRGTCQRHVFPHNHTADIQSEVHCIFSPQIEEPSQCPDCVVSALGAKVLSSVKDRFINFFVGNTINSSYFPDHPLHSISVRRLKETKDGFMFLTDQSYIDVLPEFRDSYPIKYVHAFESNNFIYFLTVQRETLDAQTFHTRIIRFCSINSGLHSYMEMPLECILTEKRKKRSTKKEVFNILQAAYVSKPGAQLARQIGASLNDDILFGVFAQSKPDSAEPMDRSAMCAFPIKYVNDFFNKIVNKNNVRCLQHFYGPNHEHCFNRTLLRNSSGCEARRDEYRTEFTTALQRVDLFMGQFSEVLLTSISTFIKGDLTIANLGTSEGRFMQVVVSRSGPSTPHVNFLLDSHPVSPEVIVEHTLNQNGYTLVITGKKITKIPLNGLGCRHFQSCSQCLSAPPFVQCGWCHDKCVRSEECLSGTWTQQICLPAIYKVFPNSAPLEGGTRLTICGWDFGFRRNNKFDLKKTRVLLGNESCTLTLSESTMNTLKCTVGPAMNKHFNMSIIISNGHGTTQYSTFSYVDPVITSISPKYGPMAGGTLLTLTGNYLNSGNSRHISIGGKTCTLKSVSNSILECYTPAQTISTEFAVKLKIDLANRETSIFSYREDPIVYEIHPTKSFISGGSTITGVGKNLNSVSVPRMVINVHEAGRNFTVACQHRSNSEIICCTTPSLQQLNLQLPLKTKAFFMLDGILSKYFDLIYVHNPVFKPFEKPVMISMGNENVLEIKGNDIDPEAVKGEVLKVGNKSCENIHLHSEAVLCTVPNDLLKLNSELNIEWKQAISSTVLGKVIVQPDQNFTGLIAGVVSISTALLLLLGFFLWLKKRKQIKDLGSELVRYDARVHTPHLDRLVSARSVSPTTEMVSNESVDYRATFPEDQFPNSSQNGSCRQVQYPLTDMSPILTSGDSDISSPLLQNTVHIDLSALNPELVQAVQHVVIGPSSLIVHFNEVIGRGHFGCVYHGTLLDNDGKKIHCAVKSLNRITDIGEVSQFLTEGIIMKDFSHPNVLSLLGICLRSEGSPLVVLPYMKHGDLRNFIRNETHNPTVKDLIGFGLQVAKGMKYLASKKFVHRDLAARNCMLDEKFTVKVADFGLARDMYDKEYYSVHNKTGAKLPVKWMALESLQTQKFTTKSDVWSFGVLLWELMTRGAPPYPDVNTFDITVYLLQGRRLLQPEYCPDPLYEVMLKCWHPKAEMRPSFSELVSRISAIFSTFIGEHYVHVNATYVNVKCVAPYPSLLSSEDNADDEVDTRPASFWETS
RON, sequence (Q04912 25-1400, species assumed): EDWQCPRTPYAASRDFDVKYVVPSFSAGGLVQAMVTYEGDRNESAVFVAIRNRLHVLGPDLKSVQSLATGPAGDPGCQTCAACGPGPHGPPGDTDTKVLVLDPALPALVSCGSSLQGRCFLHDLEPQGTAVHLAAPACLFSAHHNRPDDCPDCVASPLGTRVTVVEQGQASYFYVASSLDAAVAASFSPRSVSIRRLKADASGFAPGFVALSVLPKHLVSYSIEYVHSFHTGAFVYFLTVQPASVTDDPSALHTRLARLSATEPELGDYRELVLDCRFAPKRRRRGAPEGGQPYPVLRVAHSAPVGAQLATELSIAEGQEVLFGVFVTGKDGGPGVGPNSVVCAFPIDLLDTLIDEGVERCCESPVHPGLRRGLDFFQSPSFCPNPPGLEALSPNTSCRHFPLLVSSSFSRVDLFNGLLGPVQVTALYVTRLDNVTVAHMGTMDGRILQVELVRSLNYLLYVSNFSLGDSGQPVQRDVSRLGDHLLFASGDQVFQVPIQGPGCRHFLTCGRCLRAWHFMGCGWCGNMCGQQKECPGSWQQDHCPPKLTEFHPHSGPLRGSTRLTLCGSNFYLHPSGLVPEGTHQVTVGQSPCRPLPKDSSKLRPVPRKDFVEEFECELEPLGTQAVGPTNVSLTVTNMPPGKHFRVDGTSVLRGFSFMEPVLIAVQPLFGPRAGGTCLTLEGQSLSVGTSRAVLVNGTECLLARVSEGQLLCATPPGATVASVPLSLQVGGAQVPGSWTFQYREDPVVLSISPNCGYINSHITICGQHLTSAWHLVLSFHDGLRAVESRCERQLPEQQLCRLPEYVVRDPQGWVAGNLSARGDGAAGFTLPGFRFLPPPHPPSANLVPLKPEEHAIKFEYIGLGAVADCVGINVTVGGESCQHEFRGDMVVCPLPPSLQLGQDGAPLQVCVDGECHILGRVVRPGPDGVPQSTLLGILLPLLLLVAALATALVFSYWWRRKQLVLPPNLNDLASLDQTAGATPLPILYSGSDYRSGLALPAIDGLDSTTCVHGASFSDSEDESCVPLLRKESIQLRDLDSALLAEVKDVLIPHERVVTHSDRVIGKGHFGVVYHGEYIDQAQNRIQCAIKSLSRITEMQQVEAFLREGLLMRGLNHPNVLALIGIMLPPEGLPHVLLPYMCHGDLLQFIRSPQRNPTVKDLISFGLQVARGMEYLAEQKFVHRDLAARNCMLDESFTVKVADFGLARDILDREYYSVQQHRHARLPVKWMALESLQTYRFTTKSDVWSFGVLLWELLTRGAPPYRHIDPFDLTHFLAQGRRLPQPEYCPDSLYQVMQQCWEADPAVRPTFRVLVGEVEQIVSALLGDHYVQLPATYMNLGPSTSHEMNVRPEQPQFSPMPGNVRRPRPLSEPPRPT

As for `Nc1nccc(Oc2c(F)cc(NC(=O)c3cnn(-c4ncccc4F)c3C(F)(F)F)cc2F)c1C1CCOCC1` [Example 20, N-(4-((2-amino-3-(tetrahydro-2H-pyran-4-yl)pyridin-4-yl)oxy)-3,5-difluorophenyl)-1-(3-fluoropyridin-2-yl)-5-(trifluoromethyl)-1H-pyrazole-4-carboxamide], the pIC50 is 6.30 to 7.30 at cMET and above 7.30 against RON.
In the same order, the values of `Nc1nccc(Oc2c(F)cc(NC(=O)c3cnn(-c4ncccc4Cl)c3C(F)(F)F)cc2F)c1C1CCOCC1` [Example 21, N-(4-((2-amino-3-(tetrahydro-2H-pyran-4-yl)pyridin-4-yl)oxy)-3,5-difluorophenyl)-1-(3-chloropyridin-2-yl)-5-(trifluoromethyl)-1H-pyrazole-4-carboxamide] are 6.30 to 7.30 and above 7.30.
In the same order, the values of `Nc1nccc(Oc2c(F)cc(NC(=O)c3cnn(-c4ncccn4)c3C(F)(F)F)cc2F)c1C1CCOCC1` [Example 22, N-(4-((2-amino-3-(tetrahydro-2H-pyran-4-yl)pyridin-4-yl)oxy)-3,5-difluorophenyl)-1-(pyrimidin-2-yl)-5-(trifluoromethyl)-1H-pyrazole-4-carboxamide] are 5.30 to 6.30 and above 7.30.
For `Nc1nccc(Oc2c(F)cc(NC(=O)c3cnn(-c4cccnn4)c3C(F)(F)F)cc2F)c1C1CCOCC1` [Example 23, N-(4-((2-amino-3-(tetrahydro-2H-pyran-4-yl)pyridin-4-yl)oxy)-3,5-difluorophenyl)-1-(pyridazin-3-yl)-5-(trifluoromethyl)-1H-pyrazole-4-carboxamide] the same measures were 5.30 to 6.30 and above 7.30.
On to `Nc1nccc(Oc2c(F)cc(NC(=O)c3cnn(-c4ccccn4)c3C(F)(F)F)cc2F)c1C1CCOCC1` [Example 24, N-(4-((2-amino-3-(tetrahydro-2H-pyran-4-yl)pyridin-4-yl)oxy)-3,5-difluorophenyl)-1-(pyridin-2-yl)-5-(trifluoromethyl)-1H-pyrazole-4-carboxamide], for which the pIC50 on cMET is 5.30 to 6.30; against RON, above 7.30.
In the same order, the values of `C#Cc1c(Oc2c(F)cc(NC(=O)c3cnn(-c4ccccc4)c3C(F)(F)F)cc2F)ccnc1N` [Example 25, N-(4-((2-amino-3-ethynylpyridin-4-yl)oxy)-3,5-difluorophenyl)-1-phenyl-5-(trifluoromethyl)-1H-pyrazole-4-carboxamide] are 5.30 to 6.30 and above 7.30.
As to `C#Cc1c(Oc2c(F)cc(NC(=O)c3cnn(-c4ncccc4F)c3C(F)(F)F)cc2F)ccnc1N` [Example 26, N-(4-((2-amino-3-ethynylpyridin-4-yl)oxy)-3,5-difluorophenyl)-1-(3-fluoropyridin-2-yl)-5-(trifluoromethyl)-1H-pyrazole-4-carboxamide], the values for the pIC50 at cMET and on RON were 5.30 to 6.30 and above 7.30, respectively.
In the same order, the values of `C#Cc1c(Oc2c(F)cc(NC(=O)c3cnn(-c4ncccc4Cl)c3C(F)(F)F)cc2F)ccnc1N` [Example 27, N-(4-((2-amino-3-ethynylpyridin-4-yl)oxy)-3,5-difluorophenyl)-1-(3-chloropyridin-2-yl)-5-(trifluoromethyl)-1H-pyrazole-4-carboxamide] are 6.30 to 7.30 and above 7.30.
For `C#Cc1c(Oc2c(F)cc(NC(=O)c3cnn(-c4ncccn4)c3C(F)(F)F)cc2F)ccnc1N` [Example 28, N-(4-((2-amino-3-ethynylpyridin-4-yl)oxy)-3,5-difluorophenyl)-1-(pyrimidin-2-yl)-5-(trifluoromethyl)-1H-pyrazole-4-carboxamide] the same measures were 5.30 to 6.30 and above 7.30.
With `C#Cc1c(Oc2c(F)cc(NC(=O)c3cnn(-c4ccccn4)c3C(F)(F)F)cc2F)ccnc1N` [Example 29, N-(4-((2-amino-3-ethynylpyridin-4-yl)oxy)-3,5-difluorophenyl)-1-(pyridin-2-yl)-5-(trifluoromethyl)-1H-pyrazole-4-carboxamide], the negative logarithm of the IC50 (pIC50) against cMET was 5.30 to 6.30; against RON, above 7.30.
In the same order, the values of `C#Cc1c(Oc2c(F)cc(NC(=O)c3cnn(-c4cccnn4)c3C(F)(F)F)cc2F)ccnc1N` [Example 30, N-(4-((2-amino-3-ethynylpyridin-4-yl)oxy)-3,5-difluorophenyl)-1-(pyridazin-3-yl)-5-(trifluoromethyl)-1H-pyrazole-4-carboxamide] are 5.30 to 6.30 and above 7.30.
For the compound `N#Cc1c(Oc2c(F)cc(NC(=O)c3cnn(-c4ccccc4)c3C(F)(F)F)cc2F)ccnc1N` [Example 31, N-(4-((2-amino-3-cyanopyridin-4-yl)oxy)-3,5-difluorophenyl)-1-phenyl-5-(trifluoromethyl)-1H-pyrazole-4-carboxamide], the pIC50 was 5.30 to 6.30 against cMET and above 7.30 against RON.
For the compound `N#Cc1c(Oc2c(F)cc(NC(=O)c3cnn(-c4ccccn4)c3C(F)(F)F)cc2F)ccnc1N` [Example 32, N-(4-((2-amino-3-cyanopyridin-4-yl)oxy)-3,5-difluorophenyl)-1-(pyridin-2-yl)-5-(trifluoromethyl)-1H-pyrazole-4-carboxamide], the pIC50 was 5.30 to 6.30 at cMET and above 7.30 at RON.
Turning to `N#Cc1c(Oc2c(F)cc(NC(=O)c3cnn(-c4ncccc4F)c3C(F)(F)F)cc2F)ccnc1N` [Example 33, N-(4-((2-amino-3-cyanopyridin-4-yl)oxy)-3,5-difluorophenyl)-1-(3-fluoropyridin-2-yl)-5-(trifluoromethyl)-1H-pyrazole-4-carboxamide], the values for the pIC50 at cMET and against RON were 6.30 to 7.30 and above 7.30, respectively.
In the case of `N#Cc1c(Oc2c(F)cc(NC(=O)c3cnn(-c4ncccc4Cl)c3C(F)(F)F)cc2F)ccnc1N` [Example 34, N-(4-((2-amino-3-cyanopyridin-4-yl)oxy)-3,5-difluorophenyl)-1-(3-chloropyridin-2-yl)-5-(trifluoromethyl)-1H-pyrazole-4-carboxamide], the pIC50 against cMET is 6.30 to 7.30; at RON, above 7.30.
In the same order, the values of `N#Cc1c(Oc2c(F)cc(NC(=O)c3cnn(-c4ncccn4)c3C(F)(F)F)cc2F)ccnc1N` [Example 35, N-(4-((2-amino-3-cyanopyridin-4-yl)oxy)-3,5-difluorophenyl)-1-(pyrimidin-2-yl)-5-(trifluoromethyl)-1H-pyrazole-4-carboxamide] are 5.30 to 6.30 and above 7.30.
In the same order, the values of `N#Cc1c(Oc2c(F)cc(NC(=O)c3cnn(-c4cccnn4)c3C(F)(F)F)cc2F)ccnc1N` [Example 36, N-(4-((2-amino-3-cyanopyridin-4-yl)oxy)-3,5-difluorophenyl)-1-(pyridazin-3-yl)-5-(trifluoromethyl)-1H-pyrazole-4-carboxamide] are 5.30 to 6.30 and 6.30 to 7.30.
For `Nc1nccc(Oc2c(F)cc(NC(=O)c3cnn(-c4ccccc4)c3C(F)(F)F)cc2F)c1C1CC1` [Example 37, N-(4-((2-amino-3-cyclopropylpyridin-4-yl)oxy)-3,5-difluorophenyl)-1-phenyl-5-(trifluoromethyl)-1H-pyrazole-4-carboxamide] the same measures were 5.30 to 6.30 and above 7.30.

For orientation: pIC50 means −log10 of the IC50, conventionally taken in molar units. A higher pIC50 goes with a small IC50.

For the origin of these results see patent US20260217673A1, “NOVEL COMPOUND AS RON INHIBITOR” (LG CHEM, LTD., priority 2022, published 2026).
